In the first assay the target is T1, Full-length, GST-tagged, human CaMKIIδ (Homo sapiens, UniProt Q13557).
T1 construct: Full-Length, Glutathione-S-Transferase(GST)-Tagged, Human CaMKIIδ was purchased from Carna Biosciences; purchased Carna Biosciences 02-111
T1 sequence (Q13557 1-478 isoform Q13557-12): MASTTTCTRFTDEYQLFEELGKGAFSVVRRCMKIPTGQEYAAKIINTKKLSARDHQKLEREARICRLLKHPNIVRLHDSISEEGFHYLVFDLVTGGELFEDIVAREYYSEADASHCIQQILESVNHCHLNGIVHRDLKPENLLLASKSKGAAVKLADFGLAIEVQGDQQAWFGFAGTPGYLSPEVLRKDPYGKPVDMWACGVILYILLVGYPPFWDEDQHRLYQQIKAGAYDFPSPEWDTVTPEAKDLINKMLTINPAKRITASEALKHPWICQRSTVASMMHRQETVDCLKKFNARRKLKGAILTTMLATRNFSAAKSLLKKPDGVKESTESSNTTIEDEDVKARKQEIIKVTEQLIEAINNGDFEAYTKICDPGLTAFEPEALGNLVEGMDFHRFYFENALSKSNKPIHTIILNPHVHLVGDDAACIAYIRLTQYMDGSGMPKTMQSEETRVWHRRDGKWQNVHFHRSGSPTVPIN
As to the kind of experiment: CaMKIIδ binding assay (TR-FRET with BODIPY-labeled probe ligand). Particulars: CaMKIIδ binding assay, results of Table 2. An outline of the steps:
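Compounds were tested as 4-fold, eight-point series for 1 hr at room temperature, and IC50 was obtained by logistic fitting against a 3 μM parent-compound control. Signal came from displacement of a 300 nM BODIPY ligand from 0.5 nM GST-CaMKIIδ, detected via Tb-anti-GST in calmodulin/Ca2+ (pH 7.6).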
`COc1ccc(N2CCN(C3COC3)CC2)cc1Nc1ncc(-c2ccc(Cl)c(O[C@@H](C)Cn3cnnn3)c2)cn1` [Example 576, (S)-5-(3-((1-(1H-tetrazol-1-yl)propan-2-yl)oxy)-4-chlorophenyl)-N-(2-methoxy-5-(4-(oxetan-3-yl)piperazin-1-yl)phenyl)pyrimidin-2-amine]: the IC50 (usually the concentration that inhibits the measured activity by half) is 10 to 100 nM. Turning to `C[C@@H](Cn1cnnn1)Oc1cc(-c2cnc(Nc3cc(C4CCN(C5COC5)CC4)ccc3OC(F)(F)F)nc2)ccc1Cl` [Example 577, (S)-5-(3-((1-(1H-tetrazol-1-yl)propan-2-yl)oxy)-4-chlorophenyl)-N-(5-(1-(oxetan-3-yl)piperidin-4-yl)-2-(trifluoromethoxy)phenyl)pyrimidin-2-amine], the IC50 lay in the range of 10 to 100 nM. On to `C[C@@H](Cn1cnnn1)Oc1cc(-c2cnc(Nc3cc(C4CCN(C5COC5)CC4)c(F)cc3F)nc2)ccc1Cl` [Example 578, (S)-5-(3-((1-(1H-tetrazol-1-yl)propan-2-yl)oxy)-4-chlorophenyl)-N-(2,4-difluoro-5-(1-(oxetan-3-yl)piperidin-4-yl)phenyl)pyrimidin-2-amine], for which the 50% inhibitory concentration (IC50) lay within 10 to 100 nM. `COc1ccc(N2CCN(CC(N)=O)CC2)cc1Nc1ncc(-c2ccc(Cl)c(O[C@@H](C)Cn3cnnn3)c2)cn1` [Example 579, (S)-2-(4-(3-((5-(3-((1-(1H-tetrazol-1-yl)propan-2-yl)oxy)-4-chlorophenyl)pyrimidin-2-yl)amino)-4-methoxyphenyl)piperazin-1-yl)acetamide] yielded an IC50 of less than 10 nM. `C[C@@H](Cn1cnnn1)Oc1cc(-c2cnc(Nc3cc(N4CCC(N5CCOCC5)CC4)ccc3F)nc2)ccc1Cl` [Example 580, (S)-5-(3-((1-(1H-tetrazol-1-yl)propan-2-yl)oxy)-4-chlorophenyl)-N-(2-fluoro-5-(4-morpholinopiperidin-1-yl)phenyl)pyrimidin-2-amine]: the IC50 is less than 10 nM. Same read-out and setting: next, `C[C@@H](Cn1cnnn1)Oc1cc(-c2cnc(Nc3cc(N4CCC(N5CCOCC5)CC4)cnc3OCC(F)(F)F)nc2)ccc1Cl` [Example 581, (S)-5-(3-((1-(1H-tetrazol-1-yl)propan-2-yl)oxy)-4-chlorophenyl)-N-(5-(4-morpholinopiperidin-1-yl)-2-(2,2,2-trifluoroethoxy)pyridin-3-yl)pyrimidin-2-amine]: less than 10 nM; `COc1ccc(N2CCN(C3CCOCC3)CC2)cc1Nc1ncc(-c2ccc(Cl)c(O[C@@H](C)Cn3cnnn3)c2)cn1` [Example 582, (S)-5-(3-((1-(1H-tetrazol-1-yl)propan-2-yl)oxy)-4-chlorophenyl)-N-(2-methoxy-5-(4-(tetrahydro-2H-pyran-4-yl)piperazin-1-yl)phenyl)pyrimidin-2-amine]: less than 10 nM.

The same assay, now with this note: Table 2; activity class for CaMKIIδ.
Compound `COc1ccc(N2CCN(C(=O)CN(C)C)CC2)cc1Nc1ncc(-c2ccc(Cl)c(O[C@@H](C)Cn3cnnn3)c2)cn1` [Example 583, (S)-1-(4-(3-((5-(3-((1-(1H-tetrazol-1-yl)propan-2-yl)oxy)-4-chlorophenyl)pyrimidin-2-yl)amino)-4-methoxyphenyl)piperazin-1-yl)-2-(dimethylamino)ethan-1-one] gave an IC50 of less than 10 nM. Same read-out and setting: next, `COc1ccc(N2CCN(C)CC2)cc1Nc1ncc(-c2ccc(Cl)c(O[C@@H](C)Cn3cnnn3)c2)cn1` [Example 584, (S)-5-(3-((1-(1H-tetrazol-1-yl)propan-2-yl)oxy)-4-chlorophenyl)-N-(2-methoxy-5-(4-methylpiperazin-1-yl)phenyl)pyrimidin-2-amine]: less than 10 nM; `COc1cc2c(cc1Nc1ncc(-c3ccc(C#N)c(O[C@@H](C)Cn4cnnn4)c3)cn1)N(C(=O)C(F)(F)F)CCC2` [Example 585, (S)-2-((1-(1H-tetrazol-1-yl)propan-2-yl)oxy)-4-(2-((6-methoxy-1-(2,2,2-trifluoroacetyl)-1,2,3,4-tetrahydroquinolin-7-yl)amino)pyrimidin-5-yl)benzonitrile]: 10 to 100 nM; `COc1cc2c(cc1Nc1ncc(-c3ccc(Cl)c(O[C@@H](C)Cn4cnnn4)c3)cn1)N(C(=O)C(F)(F)F)CCC2` [Example 586, (S)-1-(7-((5-(3-((1-(1H-tetrazol-1-yl)propan-2-yl)oxy)-4-chlorophenyl)pyrimidin-2-yl)amino)-6-methoxy-3,4-dihydroquinolin-1(2H)-yl)-2,2,2-trifluoroethan-1-one]: no less than 100 nM. Same read-out and setting: the figure for `CCOc1nn(C2CCN(C3CCOCC3)CC2)cc1Nc1ncc(-c2ccc(Cl)c(O[C@@H](C)Cn3cnnn3)c2)cn1` [Example 587, (S)-5-(3-((1-(1H-tetrazol-1-yl)propan-2-yl)oxy)-4-chlorophenyl)-N-(3-ethoxy-1-(1-(tetrahydro-2H-pyran-4-yl)piperidin-4-yl)-1H-pyrazol-4-yl)pyrimidin-2-amine] is less than 10 nM; for `COc1ccc(C(=O)N2CCCN(CCO)CC2)cc1Nc1ncc(-c2ccc(Cl)c(O[C@@H](C)Cn3cnnn3)c2)cn1` [Example 588, (S)-(3-((5-(3-((1-(1H-tetrazol-1-yl)propan-2-yl)oxy)-4-chlorophenyl)pyrimidin-2-yl)amino)-4-methoxyphenyl) (4-(2-hydroxyethyl)-1,4-diazepan-1-yl)methanone] it is less than 10 nM. The same measure, in the same setting: the figure for `COc1ccc(C(=O)N2CCN(C3COC3)CC2)cc1Nc1ncc(-c2ccc(Cl)c(O[C@@H](C)Cn3cnnn3)c2)cn1` [Example 589, (S)-(3-((5-(3-((1-(1H-tetrazol-1-yl)propan-2-yl)oxy)-4-chlorophenyl)pyrimidin-2-yl)amino)-4-methoxyphenyl) (4-(oxetan-3-yl)piperazin-1-yl)methanone] is 10 to 100 nM; for `COc1cc2c(cc1Nc1ncc(-c3ccc(C#N)c(O[C@@H](C)Cn4cnnn4)c3)cn1)NCCC2` [Example 590, (S)-2-((1-(1H-tetrazol-1-yl)propan-2-yl)oxy)-4-(2-((6-methoxy-1,2,3,4-tetrahydroquinolin-7-yl)amino)pyrimidin-5-yl)benzonitrile] it is less than 10 nM; for `COc1cc2c(cc1Nc1ncc(-c3ccc(Cl)c(O[C@@H](C)Cn4cnnn4)c3)cn1)NCCC2` [Example 591, (S)-N-(5-(3-((1-(1H-tetrazol-1-yl)propan-2-yl)oxy)-4-chlorophenyl)pyrimidin-2-yl)-6-methoxy-1,2,3,4-tetrahydroquinolin-7-amine] it is less than 10 nM. For `C[C@@H](Cn1cnnn1)Oc1cc(-c2cnc(Nc3cn(C4CCN(C5CCOCC5)CC4)nc3C#N)nc2)ccc1Cl` [Example 592, (S)-4-((5-(3-((1-(1H-tetrazol-1-yl)propan-2-yl)oxy)-4-chlorophenyl)pyrimidin-2-yl)amino)-1-(1-(tetrahydro-2H-pyran-4-yl)piperidin-4-yl)-1H-pyrazole-3-carbonitrile], the IC50 was less than 10 nM.

Take `COc1ccc(C(=O)N2CCCNCC2)cc1Nc1ncc(-c2ccc(Cl)c(O[C@@H](C)Cn3cnnn3)c2)cn1` [Example 593, (S)-(3-((5-(3-((1-(1H-tetrazol-1-yl)propan-2-yl)oxy)-4-chlorophenyl)pyrimidin-2-yl)amino)-4-methoxyphenyl) (1,4-diazepan-1-yl)methanone]: the IC50 was less than 10 nM.

For `COc1cc(N2CCOC(CO)C2)ccc1Nc1ncc(-c2ccc(Cl)c(O[C@@H](C)Cn3cnnn3)c2)cn1` (stereo partly drawn) [Example 594, (4-(4-((5-(3-(((S)-1-(1H-tetrazol-1-yl)propan-2-yl)oxy)-4-chlorophenyl)pyrimidin-2-yl)amino)-3-methoxyphenyl)morpholin-2-yl)methanol], the IC50 lay within 10 to 100 nM. In turn, `COc1ccc(N2CC(N3CCOCC3)C2)cc1Nc1ncc(-c2ccc(Cl)c(O[C@@H](C)Cn3cnnn3)c2)cn1` [Example 595, (S)-5-(3-((1-(1H-tetrazol-1-yl)propan-2-yl)oxy)-4-chlorophenyl)-N-(2-methoxy-5-(3-morpholinoazetidin-1-yl)phenyl)pyrimidin-2-amine] yielded an IC50 of 10 to 100 nM. Take `C[C@@H](Cn1cnnn1)Oc1cc(-c2cnc(Nc3cn(CC4CN(C(=O)OC(C)(C)C)C4)nc3C(F)(F)F)nc2)ccc1Cl` [Example 596, tert-butyl (S)-3-((4-((5-(3-((1-(1H-tetrazol-1-yl)propan-2-yl)oxy)-4-chlorophenyl)pyrimidin-2-yl)amino)-3-(trifluoromethyl) -1H-pyrazol-1-yl)methyl)azetidine-1-carboxylate]: the IC50 is no less than 100 nM.

In turn, `C[C@@H](Cn1cnnn1)Oc1cc(-c2cnc(Nc3cn(CC4CNC4)nc3C(F)(F)F)nc2)ccc1Cl` [Example 597, (S)-5-(3-((1-(1H-tetrazol-1-yl)propan-2-yl)oxy)-4-chlorophenyl)-N-(1-(azetidin-3-ylmethyl)-3-(trifluoromethyl)-1H-pyrazol-4-yl)pyrimidin-2-amine] had an IC50 of less than 10 nM. On the same count and under the same terms, the figure for `C[C@@H](Cn1cnnn1)Oc1cc(-c2cnc(Nc3cn(CC4CN(C5COC5)C4)nc3C(F)(F)F)nc2)ccc1Cl` [Example 598, (S)-5-(3-((1-(1H-tetrazol-1-yl)propan-2-yl)oxy)-4-chlorophenyl)-N-(1-((1-(oxetan-3-yl)azetidin-3-yl)methyl)-3-(trifluoromethyl)-1H-pyrazol-4-yl)pyrimidin-2-amine] is less than 10 nM.

Consider `C[C@@H](Cn1cnnn1)Oc1cc(-c2cnc(Nc3cn(C4CCCN(C(=O)OC(C)(C)C)C4)nc3C(F)(F)F)nc2)ccc1Cl` (stereo partly drawn) [Example 599, tert-butyl 3-(4-((5-(3-(((S)-1-(1H-tetrazol-1-yl)propan-2-yl)oxy)-4-chlorophenyl)pyrimidin-2-yl)amino)-3-(trifluoromethyl)-1H-pyrazol-1-yl)piperidine-1-carboxylate], for which the half-inhibitory concentration (IC50) is no less than 100 nM. Same read-out and setting: next, `C[C@@H](Cn1cnnn1)Oc1cc(-c2cnc(Nc3cn(C4CCCNC4)nc3C(F)(F)F)nc2)ccc1Cl` (stereo partly drawn) [Example 600, 5-(3-(((S)-1-(1H-tetrazol-1-yl)propan-2-yl)oxy)-4-chlorophenyl)-N-(1-(piperidin-3-yl)-3-(trifluoromethyl)-1H-pyrazol-4-yl)pyrimidin-2-amine]: less than 10 nM.
